Key:
[1] = target: T1, Leukotriene A-4 hydrolase (Homo sapiens, UniProt P09960); experiment: Inhibition of human recombinant LTA4 hydrolase assessed as LTB4 production after 30 mins by ELISA
T1 sequence (P09960 whole entry): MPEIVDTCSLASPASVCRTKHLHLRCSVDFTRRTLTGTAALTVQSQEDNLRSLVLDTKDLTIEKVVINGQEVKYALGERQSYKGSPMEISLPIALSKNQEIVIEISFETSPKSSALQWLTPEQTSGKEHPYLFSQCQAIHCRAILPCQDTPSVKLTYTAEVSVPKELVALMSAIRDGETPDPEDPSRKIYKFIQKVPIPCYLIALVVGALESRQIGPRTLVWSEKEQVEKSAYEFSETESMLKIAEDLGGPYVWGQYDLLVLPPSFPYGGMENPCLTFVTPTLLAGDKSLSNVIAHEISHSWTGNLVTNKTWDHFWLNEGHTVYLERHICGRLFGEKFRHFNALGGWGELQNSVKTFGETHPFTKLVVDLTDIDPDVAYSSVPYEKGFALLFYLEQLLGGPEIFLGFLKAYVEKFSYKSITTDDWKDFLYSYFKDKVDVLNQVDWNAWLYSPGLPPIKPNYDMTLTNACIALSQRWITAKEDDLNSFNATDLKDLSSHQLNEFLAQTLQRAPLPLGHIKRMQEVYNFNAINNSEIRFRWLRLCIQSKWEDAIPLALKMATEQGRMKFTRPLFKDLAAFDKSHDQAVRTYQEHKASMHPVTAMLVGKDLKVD

[2] = target: T1, Leukotriene A-4 hydrolase; experiment: Inhibition of human recombinant LTA4 aminopeptidase activity spectrophotometric analysis
Blood [3] = experiment: Inhibition of LTB4 production in human whole blood after 15 mins by ELISA; format: functional, tissue-based; details: 0.25 h
Blood [4] = experiment: Inhibition of TxB2 production in human whole blood after 15 mins by ELISA; format: functional, tissue-based; details: 0.25 h
[5] = target: T2, Angiotensin-converting enzyme (Oryctolagus cuniculus, UniProt P12822); experiment: Inhibition of rabbit lung ACE
T2 sequence (P12822 whole entry): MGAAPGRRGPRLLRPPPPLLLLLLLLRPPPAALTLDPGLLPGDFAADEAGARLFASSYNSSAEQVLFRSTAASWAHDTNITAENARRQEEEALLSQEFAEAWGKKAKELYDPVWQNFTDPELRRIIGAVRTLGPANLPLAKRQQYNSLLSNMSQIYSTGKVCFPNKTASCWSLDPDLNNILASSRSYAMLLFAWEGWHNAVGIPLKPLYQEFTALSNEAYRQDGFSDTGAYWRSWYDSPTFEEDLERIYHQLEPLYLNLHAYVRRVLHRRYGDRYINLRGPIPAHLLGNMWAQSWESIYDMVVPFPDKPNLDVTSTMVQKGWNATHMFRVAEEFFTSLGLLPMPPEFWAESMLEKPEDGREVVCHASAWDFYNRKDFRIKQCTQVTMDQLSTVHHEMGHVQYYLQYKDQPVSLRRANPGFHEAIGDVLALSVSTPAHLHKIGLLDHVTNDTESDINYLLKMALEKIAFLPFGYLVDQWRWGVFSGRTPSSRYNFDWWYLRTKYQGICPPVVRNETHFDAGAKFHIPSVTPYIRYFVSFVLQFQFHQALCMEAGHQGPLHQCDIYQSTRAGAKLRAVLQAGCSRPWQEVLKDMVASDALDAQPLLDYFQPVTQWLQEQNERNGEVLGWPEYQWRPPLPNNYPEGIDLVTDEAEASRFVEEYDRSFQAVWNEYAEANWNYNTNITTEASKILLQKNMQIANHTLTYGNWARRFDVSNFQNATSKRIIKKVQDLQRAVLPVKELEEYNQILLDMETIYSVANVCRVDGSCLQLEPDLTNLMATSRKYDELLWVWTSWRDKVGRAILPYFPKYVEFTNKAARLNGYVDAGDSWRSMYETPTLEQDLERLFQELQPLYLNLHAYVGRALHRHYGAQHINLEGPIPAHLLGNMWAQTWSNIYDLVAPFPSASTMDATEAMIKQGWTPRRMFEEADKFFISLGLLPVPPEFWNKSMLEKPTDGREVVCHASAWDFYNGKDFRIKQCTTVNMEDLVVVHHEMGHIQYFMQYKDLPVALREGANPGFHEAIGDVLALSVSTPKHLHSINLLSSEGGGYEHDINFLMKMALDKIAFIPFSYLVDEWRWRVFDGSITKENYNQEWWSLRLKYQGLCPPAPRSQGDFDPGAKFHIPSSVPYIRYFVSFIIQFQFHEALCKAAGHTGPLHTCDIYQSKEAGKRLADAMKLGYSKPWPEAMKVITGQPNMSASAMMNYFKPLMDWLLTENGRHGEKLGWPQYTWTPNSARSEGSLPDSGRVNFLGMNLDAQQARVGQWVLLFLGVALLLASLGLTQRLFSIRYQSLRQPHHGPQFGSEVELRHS

C[C@H](N)C(=O)CCCC[C@@H](C)C(=O)O
IC50 [1]: 0.57 µM | IC50 [2]: 0.3 µM | IC50 (Blood [3]): 7 µM | IC50 (Blood [4]): > 30 µM | IC50 [5]: > 100 µM

Reference: ChEMBL document CHEMBL1158279, “Isolation and structure of leukotriene-A4 hydrolase inhibitor: 8(S)-amino-2(R)-methyl-7-oxononanoic acid produced by Streptomyces diastaticus” (J Nat Prod, 1996)
